Assay [1] relates to primary EOC cells. Description: HPMC invasion by primary EOC cells monitored in real time. The assay is classed as cell-based, human. As to conditions: 10 nM RI-3; xCELLigence, slopes 18–24 h; quadruplicate representative of 3 replicates. How it is done: (§1) HPMCs (5 × 10^3 cells/well) suspended in growth medium, were seeded in E-16-well plates and allow to adhere for 18–20 h until they form a confluent monolayer, prior to seeding EOC cells (2 × 10^4 cells/well) in growth medium plus/minus 10 nM RI-3. When HPMCs are challenged with invading cells, there is a drop in electrical resistance within 2–4 h which is monitored in real-time as the Cell Index changes due to the rupture of mesothelium. The experiments were performed three times in quadruplicate.

The subject of assay [2] is SKOV-3 cells. Description: HPMC invasion by SKOV-3 cells monitored in real time. The assay is classed as cell-based, Human. Conditions: 10 nM RI-3; xCELLigence cell index, slopes 20–24 h; quadruplicate representative of 3 replicates. How it is done:
as §1

For another assay, the system named is EOC cells. Description: EOC cell adhesion to and crossing of mesothelial cell monolayers (summary statement). The assay is classed as cell-based, human. Conditions: EOC cells exposed to RI-3 or desensitized with an excess of SRSRY. How it is done:
(§2) HPMCs (1 × 10^5 cells/well) suspended in growth medium, were seeded in 24-well plates and allowed to adhere for about 20 h until they form a confluent monolayer, prior to seeding GFP-tagged EOC cells suspended in growth medium plus diluents or 10 nM RI-3. At the indicated times, plates were accurately washed with PBS and cell-associated fluorescence was assessed by a fluorescence plate reader a fluorescence plate reader (Victor 3, Perkin Elmer), using 485 nm excitation and 535 nm emission filters. The experiments were performed three times in triplicate.
as §1

Assay [3] concerns SKOV-3 cells. Nature of the assay: Adhesion of SKOV-3 cells onto extracellular matrix proteins (24-well plates, cell counting). The assay is classed as cell-based, Human. As for the experimental part:
(§3) Adhesion assays were performed using 24 multi-well plates coated with 1% BSA, 5 μg mL vitronectin (Vn), 5 μg mL fibronectin (Fn), 5 μg mL laminin (Lm) or 15 μg mL collagen (Coll) diluted in serum-free medium. Sub-confluent cells were harvested by a mild trypsinization, incubated with 10% FBS / DMEM for 1 h at 37 °C, 5% CO2, acid treated with a buffer containing 50 mM glycin-HC1, 0.1 M NaCl, pH 3 for 4 min at 22 °C, to remove receptor-bound ligands, and counted. Viable cells (2 × 10^5 cells per well) were plated in serum-free medium, in the absence or presence of 2 μg/mL R3 mAb recognizing the DI uPAR domain, 2 μg/mL399 anti-uPAR (American Diagnostica), 2 μg/mL anti-uPAR84-95 (PRIMM), 2 μg/mL anti-α-tubulin (Cell Signaling) Abs or 10 nM RI-3, and allowed to adhere for 2 h at 37 °C, 5% CO2. […] At the end of the assay, adherent cells were removed with 0.05% trypsin, and counted. The number of adherent cells was expressed as a percentage of the basal cell adhesion (CTRL). The experiments were performed at least three times in triplicate.

A further assay has as its system A2780 cells. Nature of the assay: Adhesion of A2780 cells onto extracellular matrix proteins. The assay is classed as cell-based, Human. Conditions: A2780 cells lacking uPAR and FPR1, 10 nM RI-3; BSA, Vn, Fn, Lm or Coll; three independent experiments. How it is done: as §3, with “The experiments were performed at least three times in triplicate.” left out
Supplementary file 13046_2019_1465_MOESM1_ESM.zip: Additional file 1: Figure S1. […] The number of adherent cells was expressed as a percentage of CTRL. […] Then, A2780 cells suspended in growth medium plus/minus 10 nM RI-3 were seeded onto the mesothelial cell monolayer and invasion of mesothelium by A2780 cells was monitored in real-time as changes in Cell Index due to breaking of the monolayer integrity. […]

Assay [4] relates to primary EOC cells. Description: GFP-EOC (primary) cell adhesion onto mesothelium (HPMC monolayer). The assay is classed as cell-based, human. Conditions: three independent experiments in triplicate. How it is done: as §2

Non-standard residues stand in square brackets, D forms with d. Aib = CC(C)(N)C(=O)O

As for “Ac-[dY][dR][Aib][dR]-NH2 [RI-3, retro-inverso peptide, uPAR/FPR1 antagonist]”, the “reduction of capability of EOC cells to cross the mesothelial cell monolayer” value in the assay on primary EOC cells [1] is “about 80%”. In the assay on SKOV-3 cells [2], the “capability of SKOV-3 cells to disrupt mesothelial cell monolayer” value is on record as “abrogated the capability of SKOV-3 cells to disrupt mesothelial cell monolayer”. The “ability to cross mesothelial cell monolayers (abstract)” value in the assay on EOC cells is “losing the ability to cross them”. Besides, the “basal cell adhesion and adhesion to Coll-, Fn- and Lm-coated plates” value in the assay on SKOV-3 cells [3] (SKOV-3, 10 nM RI-3, 2 h, BSA (basal), collagen, fibronectin, laminin, three independent experiments) was “neither affected basal cell adhesion, nor cell adhesion to Coll- Fn- and Lm-coated plates”. Also, the “extent of cell adhesion onto Vn with RI-3” value in the assay on SKOV-3 cells [3] (SKOV-3, 10 nM RI-3, Fig. 2d (2 h, cell counting) and Fig. 2e (real time 2 h)) is recorded as “dramatically reduced the extent of cell adhesion onto Vn”. Also, the A2780 cell adhesion result in the assay with A2780 cells is recorded as “ineffective”. For the same substance, the “reduction of EOC cell adhesion onto mesothelium” value amounted to 72% in the assay with primary EOC cells [4] (10 nM RI-3, after 5 min); 51% in the assay on primary EOC cells [4] (10 nM RI-3, after 10 min); 47% in the assay with primary EOC cells [4] (10 nM RI-3, after 20 min); 46% in the assay on primary EOC cells [4] (10 nM RI-3, after 40 min).

The values are drawn from paper PMC6839174, “Targeting the Formyl Peptide Receptor type 1 to prevent the adhesion of ovarian cancer cells onto mesothelium and subsequent invasion” (Journal of Experimental & Clinical Cancer Research : CR, 2019).
